Data as given in patent publication US20130085161A1, “PIPERIDINYL SUBSTITUTED 1,3-DIHYDRO-BENZOIMIDAZOL-2-YLIDENEAMINE DERIVATIVES” (NOVARTIS AG, priority 2010, published 2013).
pIC50: −log10 of the molar value.

Biological target: T1, BaF3-Tel-IGF1-R (Homo sapiens, UniProt P08069)
T1 construct: the kinase domain of IGF-1R (aa 976-1367) linked by a Ser-Arg-linker; expressed in transfected cells; host or cells: BaF3 murine proB-cell lymphoma cells, stably transduced
Test: BaF3 cell viability assay (resazurin), 384-well format
Type: cell-based
Conditions: 384-well plate format; 48 h incubation; resazurin dye reduction; cell proliferation/viability
Excerpt: BaF3-Tel-IGF1-R and BaF3-InsR are BaF3 murine proB-cell lymphoma cell derivatives [the BaF3 cell line (also termed Ba/F3) is available from the German Collection of Microorganisms and Cell Cultures (DSMZ), Braunschweig, Germany] that have been rendered IL-3-independent by stable transduction with kinase-activating fusions between human TEL (aa 1-452) and the kinase domain of IGF-1R (aa 976-1367) linked by a Ser-Arg-linker (Boulay et al, Cancer Res 68, 3743-3751, 2008), and a fusion between human TEL (aa 1-337) and the kinase domain (aa 1015-1382) of the Insulin receptor (Melnick J S et al, Proc Natl Acad Sci USA 103, 3153-3158, 2006), respectively. Cells are cultured in RPMI-1640 (Animed #1-14F01-1) supplemented with 2% L-glutamine (Animed #5-10K50-H) and 10% fetal calf serum (FCS, Animed #2-01F16-I). Wild-type, untransfected BaF3 cells are maintained in above medium plus 10 U/ml IL-3 (mouse Interleukin-3, Roche #1380745 or Invitrogen # PMC0035) and are used to identify non-selective, generally growth-inhibitory compounds. Cells (1.5×10^4 cells per well) are seeded in 190 μl fresh medium into 96-well plates. 10 μl 20× compound solutions are added. As internal control, the kinase inhibitor PKC412 is routinely used. Control cells treated with DMSO (0.1% final concentration) serve as growth reference (set as 100% growth). In addition, a plate blank value is routinely determined in a well containing only […] of medium and no cells. IC50 determinations are performed based on eight 3-fold serial dilutions of the test compound, starting at 10 μM. Following incubation of the cells for 48 h at 37° C. and 5% CO2, the effect of inhibitors on cell viability is assessed by the resazurin sodium salt dye reduction assay (commercially known as AlamarBlue assay) basically as previously described (O'Brien J. et al., Eur. J. Biochem. 267: 5421-5426, 2000). Briefly, 20 μl dye solution is added per well and the plates incubated for 6 h at 37° C. and 5% CO2. Thereafter, fluorescence is measured using a Saphirell 96-well plate reader (TECAN, Männedorf, Switzerland) with the following settings: Excitation 544 nm and Emission 590 nm. For data analysis, the plate blank value is subtracted from all data points. The effect of a particular test compound concentration on cell proliferation and viability is expressed as percentage of the blank-corrected reading obtained for cells treated with vehicle only, which is set as 100%. IC50 values can be determined using XLfit (V4.2), applying standard four parameter logistic model #205 (IDBS, Guilford, UK) or other common curve-fitting software.
To achieve a higher throughput, the cell viability assay can also be performed in a 384-well format. Briefly, 4′500 freshly diluted cells are seeded in 54 μl/well into 384-well plates using a liquid dispenser. 6 μl 10× compound solution is added to the cell plate. As internal control, the kinase inhibitor PKC412 is routinely used. Control cells treated with DMSO (0.1% final concentration) serve as growth reference (set as 100% growth). In addition, a plate blank value is routinely determined in a well containing only 60 μl of medium and no cells. Dose-response effects are determined by 3-fold serial compound dilutions, starting at 10 μM. Following incubation of the cells for 48 h at 37° C. and 5% CO2, the effect of compounds on cell proliferation/viability is assessed by addition of 6 μl resazurin sodium salt dye solution per well. Following incubation for an additional 6 hrs at 37° C. and 5% CO2, fluorescence is measured using an Infiniti M1000 microplate reader (TECAN, Männedorf, Switzerland) with excitation and emission wavelengths set at 544 and 590 nm, respectively. For data analysis, the plate blank value is subtracted from all data points. IC50 values can be determined by four parameter logistic fitting as described above.

T1 sequence (P08069 976-1367): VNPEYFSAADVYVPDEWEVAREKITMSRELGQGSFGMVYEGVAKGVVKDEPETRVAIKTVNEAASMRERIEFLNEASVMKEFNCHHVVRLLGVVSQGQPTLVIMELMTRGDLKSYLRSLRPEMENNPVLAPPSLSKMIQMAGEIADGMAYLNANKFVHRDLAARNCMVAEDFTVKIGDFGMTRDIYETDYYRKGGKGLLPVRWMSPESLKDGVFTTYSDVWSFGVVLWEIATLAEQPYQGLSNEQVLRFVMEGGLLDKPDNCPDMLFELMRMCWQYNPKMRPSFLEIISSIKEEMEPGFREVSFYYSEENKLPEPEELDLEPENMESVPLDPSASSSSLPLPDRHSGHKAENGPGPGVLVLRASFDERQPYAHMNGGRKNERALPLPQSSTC

SMILES	pIC50
CC(=O)Nc1ccc(Cl)cc1N1CC[C@H](n2c(=N)n(Cc3cccc4[nH]ccc34)c3ccc(F)cc32)[C@@H](O)C1 (racemic) [Example 67, Rac-trans-N-(4-Chloro-2-{4-[6-fluoro-2-imino-3-(1H-indol-4-ylmethyl)-2,3-dihydro-benzoimidazol-1-yl]-3-hydroxy-piperidin-1-yl}-phenyl)-acetamide]	7.64
CC(=O)Nc1ccc(Cl)cc1N1CC[C@H](n2c(=N)n(Cc3ccccc3Cl)c3ccc(F)cc32)[C@@H](O)C1 (racemic) [Example 67.1, Rac-trans-N-(4-Chloro-2-{4-[3-(2-chloro-benzyl)-6-fluoro-2-imino-2,3-dihydro-benzo-imidazol-1-yl]-3-hydroxy-piperidin-1-yl}-phenyl)-acetamide]	8.00
CC(=O)Nc1ccc(C)nc1N1CC[C@H](n2c(=N)n(Cc3ccccc3Cl)c3ccc(F)cc32)[C@@H](O)C1 (racemic) [Example 67.2, Rac-trans-N-{4-[3-(2-Chloro-benzyl)-6-fluoro-2-imino-2,3-dihydro-benzoimidazol-1-yl]-3-hydroxy-6′-methyl-3,4,5,6-tetrahydro-2H-[1,2′]bipyridinyl-3′-yl}-acetamide]	7.21
CC(=O)Nc1ccc(C)nc1N1CC[C@H](n2c(=N)n(Cc3cccc4[nH]ccc34)c3ccc(F)cc32)[C@@H](O)C1 (racemic) [Example 67.3, Rac-trans-N-{4-[6-Fluoro-2-imino-3-(1H-indol-4-yl-methyl)-2,3-dihydro-benzo-imidazol-1-yl]-3-hydroxy-6′-methyl-3,4,5,6-tetrahydro-2H-[1,2′]bipyridinyl-3′-yl}-acetamide]	6.78
CC(=O)Nc1ccc(C)nc1N1CC[C@H](n2c(=N)n(Cc3cccc4[nH]ccc34)c3ccccc32)[C@@H](O)C1 (racemic) [Example 67.4, Rac-trans-N-{3-Hydroxy-4-[2-imino-3-(1H-indol-4-ylmethyl)-2,3-dihydro-benzoimidazol-1-yl]-6′-methyl-3,4,5,6-tetrahydro-2H-[1,2′]bipyridinyl-3′-yl}-acetamide]	6.00
CC(=O)Nc1ccc(Cl)cc1N1CC[C@H](n2c(=N)n(Cc3cccc4[nH]ccc34)c3ccccc32)[C@@H](O)C1 (racemic) [Example 67.5, Rac-trans-N-(4-Chloro-2-{3-hydroxy-4-[2-imino-3-(1H-indol-4-ylmethyl)-2,3-dihydro-benzoimidazol-1-yl]-piperidin-1-yl}-phenyl)-acetamide]	7.52
CC(=O)Nc1ccc(Cl)cc1N1CC[C@H](n2c(=N)n(Cc3cccc4[nH]nnc34)c3ccc(F)cc32)[C@@H](O)C1 (racemic) [Example 67.6, Rac-trans-N-(2-{4-[3-(1H-Benzo-triazol-4-ylmethyl)-6-fluoro-2-imino-2,3-dihydro-benzoimidazol-1-yl]-3-hydroxy-piperidin-1-yl}-4-chloro-phenyl)-acetamide]	6.29
CC(=O)Nc1ccc(Cl)cc1N1CC[C@H](n2c(=N)n(Cc3cccc4[nH]cnc34)c3ccc(F)cc32)[C@@H](O)C1 (racemic) [Example 67.7, Rac-trans-N-(2-{4-[3-(1H-Benzo-imidazol-4-ylmethyl)-6-fluoro-2-imino-2,3-dihydro-benzo-imidazol-1-yl]-3-hydroxy-piperidin-1-yl}-4-chloro-phenyl)-acetamide]	6.19
CC(=O)Nc1ccc(C)cc1N1CCC(n2c(=N)n(Cc3cccc4[nH]ccc34)c3ccccc32)CC1 [Example 56, N-(2-{4-[2-Imino-3-(1H-indol-4-ylmethyl)-2,3-dihydro-benzoimidazol-1-yl]-piperidin-1-yl}-4-methyl-phenyl)acetamide]	> 8.35
COc1ccc(NC(C)=O)c(N2CCC(n3c(=N)n(Cc4cccc5[nH]ccc45)c4ccccc43)CC2)c1 [Example 56.1, N-(2-{4-[2-Imino-3-(1H-indol-4-ylmethyl)-2,3-dihydro-benzoimidazol-1-yl]-piperidin-1-yl}-4-methoxy-phenyl)-acetamide]	7.46
CC(=O)Nc1ccccc1N1CCC(n2c(=N)n(Cc3cccc4[nH]ccc34)c3ccccc32)CC1 [Example 56.2, N-(2-{4-[2-Imino-3-(1H-indol-4-ylmethyl)-2,3-dihydro-benzoimidazol-1-yl]-piperidin-1-yl}-phenyl)-acetamide]	7.38
CC(=O)Nc1ccc(C(F)(F)F)cc1N1CCC(n2c(=N)n(Cc3cccc4[nH]ccc34)c3ccccc32)CC1 [Example 56.3, N-(2-{4-[2-Imino-3-(1H-indol-4-ylmethyl)-2,3-dihydro-benzoimidazol-1-yl]-piperidin-1-yl}-4-trifluoromethyl-phenyl)-acetamide]	7.28
CC(=O)Nc1ccc(C#N)cc1N1CCC(n2c(=N)n(Cc3cccc4[nH]ccc34)c3ccccc32)CC1 [Example 56.4, N-(4-Cyano-2-{4-[2-imino-3-(1H-indol-4-ylmethyl)-2,3-dihydro-benzoimidazol-1-yl]-piperidin-1-yl}-phenyl)-acetamide]	7.00
CC(=O)Nc1ccc(C)cc1N1CCC(n2c(=N)n(Cc3ccccc3Cl)c3ccccc32)CC1 [Example 56.5, N-(2-{4-[3-(2-Chloro-benzyl)-2-imino-2,3-dihydro-benzoimidazol-1-yl]-piperidin-1-yl}-4-methyl-phenyl)-acetamide]	7.29
CC(=O)Nc1ccc(C(F)(F)F)cc1N1CCC(n2c(=N)n(Cc3ccccc3Cl)c3ccccc32)CC1 [Example 56.7, N-(2-{4-[3-(2-Chloro-benzyl)-2-imino-2,3-dihydro-benzoimidazol-1-yl]-piperidin-1-yl}-4-trifluoromethyl-phenyl)-acetamide]	7.16
CC(=O)Nc1ccc(C(F)(F)F)cc1N1CCC(n2c(=N)n(Cc3cccc4[nH]nnc34)c3ccccc32)CC1 [Example 56.8, N-(2-{4-[3-(1H-Benzotriazol-4-ylmethyl)-2-imino-2,3-dihydro-benzoimidazol-1-yl]-piperidin-1-yl}-4-trifluoromethyl-phenyl)-acetamide]	6.68
CC(=O)Nc1ccc(C#N)cc1N1CCC(n2c(=N)n(Cc3ccccc3Cl)c3ccccc32)CC1 [Example 56.9, N-(2-{4-[3-(2-Chloro-benzyl)-2-imino-2,3-dihydro-benzoimidazol-1-yl]-piperidin-1-yl}-4-cyano-phenyl)-acetamide]	7.09
COc1ccc(NC(C)=O)c(N2CCC(n3c(=N)n(Cc4ccccc4Cl)c4ccccc43)CC2)c1 [Example 56.10, N-(2-{4-[3-(2-Chloro-benzyl)-2-imino-2,3-dihydro-benzoimidazol-1-yl]-piperidin-1-yl}-4-methoxy-phenyl)-acetamide]	7.06
CC(=O)Nc1ccc(C#N)cc1N1CCC(n2c(=N)n(Cc3cccc4[nH]ccc34)c3ccc(F)cc32)CC1 [Example 56.11, N-(4-Cyano-2-{4-[6-fluoro-2-imino-3-(1H-indol-4-ylmethyl)-2,3-dihydro-benzoimidazol-1-yl]-piperidin-1-yl}-phenyl)-acetamide]	7.80
CC(=O)Nc1ccc(C)cc1N1CCC(n2c(=N)n(Cc3ccccc3Cl)c3ccc(F)cc32)CC1 [Example 56.12, N-(2-{4-[3-(2-Chloro-benzyl)-6-fluoro-2-imino-2,3-dihydro-benzoimidazol-1-yl]-piperidin-1-yl}-4-methyl-phenyl)-acetamide]	7.32
